From ChEMBL document CHEMBL5230116, “Recent developments of small molecules with anti-inflammatory activities for the treatment of acute lung injury” (Eur J Med Chem, 2020)

Key:
[1] = biological target: T1, 72 kDa type IV collagenase (Homo sapiens, UniProt P08253); assay: Inhibition of recombinant human MMP-2 using QF24 as substrate incubated for 3 hrs by spectrofluorometer assay
Neutrophil collagenase = Neutrophil collagenase (Homo sapiens, UniProt P22894); assay: Inhibition of recombinant human MMP-8 using QF24 as substrate incubated for 3 hrs by spectrofluorometer assay
Neutrophil collagenase, sequence (P22894 whole entry): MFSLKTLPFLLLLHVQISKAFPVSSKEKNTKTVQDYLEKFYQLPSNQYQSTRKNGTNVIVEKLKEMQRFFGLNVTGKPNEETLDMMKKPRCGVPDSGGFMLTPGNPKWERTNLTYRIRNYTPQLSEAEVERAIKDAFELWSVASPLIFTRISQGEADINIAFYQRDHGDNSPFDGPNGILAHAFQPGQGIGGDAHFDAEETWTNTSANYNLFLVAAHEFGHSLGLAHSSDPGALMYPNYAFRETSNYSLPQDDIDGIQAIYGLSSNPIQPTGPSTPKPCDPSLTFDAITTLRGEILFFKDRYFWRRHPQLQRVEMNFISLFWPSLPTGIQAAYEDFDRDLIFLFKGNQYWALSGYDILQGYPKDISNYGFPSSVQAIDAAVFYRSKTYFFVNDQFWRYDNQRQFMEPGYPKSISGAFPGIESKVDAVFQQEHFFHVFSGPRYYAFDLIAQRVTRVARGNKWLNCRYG

[2] = Inhibition of LPS induced TNF-alpha expression in ICR mouse peritoneal macrophage at 10 uM incubated for 30 mins followed by LPS stimulation measured after 24 hrs by ELISA assay relative to control; type: functional
[3] = Inhibition of LPS induced IL-6 expression in ICR mouse peritoneal macrophage at 10 uM incubated for 30 mins followed by LPS stimulation measured after 24 hrs by ELISA assay relative to control; type: functional
RAW264.7 = assay: Inhibition of NO production in LPS stimulated mouse RAW264.7 cells incubated for 1 hr by Griess reagent based assay; type: functional, cell-based; conditions: RAW264.7, 1 h
[4] = Inhibition of IL-6 expression in LPS stimulated mouse RAW264.7 cells incubated for 1 hr by ELISA assay; type: functional, cell-based; conditions: RAW264.7, 1 h
[5] = Inhibition of TNF-alpha expression in LPS stimulated mouse RAW264.7 cells incubated for 1 hr by ELISA assay; type: functional, cell-based; conditions: RAW264.7, 1 h
[6] = biological target: Matrix metalloproteinase-9 (Homo sapiens, UniProt P14780); assay: Inhibition of MMP-9 (unknown origin)
Matrix metalloproteinase-9, sequence (P14780 whole entry): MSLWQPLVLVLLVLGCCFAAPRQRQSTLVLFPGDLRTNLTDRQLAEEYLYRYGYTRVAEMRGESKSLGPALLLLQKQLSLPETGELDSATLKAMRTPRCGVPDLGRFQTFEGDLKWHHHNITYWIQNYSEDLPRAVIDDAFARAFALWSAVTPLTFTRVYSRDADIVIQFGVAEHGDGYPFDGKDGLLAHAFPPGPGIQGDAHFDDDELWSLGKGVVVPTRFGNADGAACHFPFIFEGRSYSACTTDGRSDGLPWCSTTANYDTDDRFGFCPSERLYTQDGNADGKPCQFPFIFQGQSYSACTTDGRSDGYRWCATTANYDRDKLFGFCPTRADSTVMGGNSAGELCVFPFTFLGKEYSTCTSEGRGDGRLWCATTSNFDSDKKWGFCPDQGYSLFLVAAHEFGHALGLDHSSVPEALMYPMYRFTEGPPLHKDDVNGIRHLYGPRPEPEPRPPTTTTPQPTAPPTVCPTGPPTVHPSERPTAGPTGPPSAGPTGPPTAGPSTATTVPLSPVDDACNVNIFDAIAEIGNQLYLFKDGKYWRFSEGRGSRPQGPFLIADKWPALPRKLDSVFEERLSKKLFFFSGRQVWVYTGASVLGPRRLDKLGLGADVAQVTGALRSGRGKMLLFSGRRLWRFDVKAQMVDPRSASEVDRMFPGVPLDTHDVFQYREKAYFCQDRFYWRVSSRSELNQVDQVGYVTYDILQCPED

[7] = biological target: T1, 72 kDa type IV collagenase; assay: Inhibition of MMP-2 (unknown origin)
[8] = Half life in rat at 3 mg/kg, po; type: ADME, organism-based; conditions: in vivo
[9] = Oral bioavailability in rat at 3 mg/kg; type: ADME, organism-based; conditions: in vivo

T1 sequence (P08253 whole entry): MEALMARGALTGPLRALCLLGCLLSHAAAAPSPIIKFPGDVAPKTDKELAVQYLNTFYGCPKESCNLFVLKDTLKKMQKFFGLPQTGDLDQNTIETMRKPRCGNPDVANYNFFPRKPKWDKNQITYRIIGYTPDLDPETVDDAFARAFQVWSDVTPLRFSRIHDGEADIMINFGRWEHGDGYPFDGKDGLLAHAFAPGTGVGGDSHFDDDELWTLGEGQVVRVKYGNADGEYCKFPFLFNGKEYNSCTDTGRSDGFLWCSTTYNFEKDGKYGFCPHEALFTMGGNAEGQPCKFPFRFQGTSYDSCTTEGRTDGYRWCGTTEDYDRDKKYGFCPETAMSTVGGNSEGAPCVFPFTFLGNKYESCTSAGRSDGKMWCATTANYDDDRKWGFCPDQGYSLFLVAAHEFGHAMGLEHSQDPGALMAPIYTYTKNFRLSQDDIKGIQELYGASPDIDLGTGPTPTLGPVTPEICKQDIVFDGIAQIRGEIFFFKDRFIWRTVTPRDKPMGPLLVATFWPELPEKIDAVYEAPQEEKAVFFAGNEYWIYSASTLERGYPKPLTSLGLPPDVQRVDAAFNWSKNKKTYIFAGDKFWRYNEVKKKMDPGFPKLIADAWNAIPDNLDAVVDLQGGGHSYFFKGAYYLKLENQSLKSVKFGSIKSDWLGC

## O=C(CCN1CCN(Cc2ccccc2)CC1)Nc1nc(-c2ccccc2)cs1
[1]
  IC50: 10.2 µM
Neutrophil collagenase
  IC50: 11.9 µM

## COc1cc(/C=C2\Cc3ccc(O)cc3C2=O)ccc1O
[2]
  inhibition at 10 µM: 83.7%
[3]
  inhibition at 10 µM: 69.3%

## CCCc1nn(C)c2c(NCCCN3CCOCC3)nc(/C=C/c3cc(OC)c(OC)c(OC)c3)nc12
RAW264.7
  IC50: 2.64 µM
[4]
  IC50: 4.38 µM
[5]
  IC50: 5.63 µM

## CCCOc1cccc2c1C(=O)/C(=C/c1ccc(O)c(OC)c1)C2
[2]
  inhibition at 10 µM: 72%
[3]
  inhibition at 10 µM: 84.9%

## O=C(CN1CCN(c2ccccc2)CC1)Nc1nc(-c2ccc(F)cc2)cs1
[1]
  IC50: 4.22 µM
Neutrophil collagenase
  IC50: 2.34 µM

## COc1cc(/C=C2\Cc3cc(OC)c(OC)cc3C2=O)ccc1O
[2]
  inhibition at 10 µM: 79.3%
[3]
  inhibition at 10 µM: 81.4%

## O=C1NC(=O)C(O)(CC(=O)c2ccc(NS(=O)(=O)c3ccc(C(F)(F)F)cc3)cc2)C(=O)N1
[6]
  IC50: 0.00824 µM
[7]
  IC50: 0.00235 µM

## Cc1coc2c1C(=O)c1c3c-2ccc2c3c(n1Cc1ccccc1)C(=O)CC2(C)C
[8]
  half-life: 4.05 h
[9]
  bioavailability: 30.2%

## Cc1coc2c1C(=O)C(=O)c1c-2ccc2c1CCCC2(C)C [TANSHINONE IIA]
[8]
  half-life: 0.34 h
[9]
  bioavailability: < 3.5%
